The text below walks through data of patent publication US20220380375A1, “SUBSTITUTED AROMATIC FUSED RING DERIVATIVE AND COMPOSITION COMPRISING SAME, AND USE THEREOF” (Shenzhen TargetRx, Inc., priority 2019, published 2022).

Each structure is given as a SMILES string.

What all share (type): cell-based
The target of assay [1] is T1, Ba/F3 KIF5B-RET cells (Homo sapiens, UniProt P07949).
T1 construct: Ba/F3 KIF5B-RET IC50 (nM); other: CellTiter-Glo, 72 hrs; fused on or other part: P33176 (Kinesin-1 heavy chain)
T1 sequence (P07949 whole entry, change not shown, the tested form may be a part): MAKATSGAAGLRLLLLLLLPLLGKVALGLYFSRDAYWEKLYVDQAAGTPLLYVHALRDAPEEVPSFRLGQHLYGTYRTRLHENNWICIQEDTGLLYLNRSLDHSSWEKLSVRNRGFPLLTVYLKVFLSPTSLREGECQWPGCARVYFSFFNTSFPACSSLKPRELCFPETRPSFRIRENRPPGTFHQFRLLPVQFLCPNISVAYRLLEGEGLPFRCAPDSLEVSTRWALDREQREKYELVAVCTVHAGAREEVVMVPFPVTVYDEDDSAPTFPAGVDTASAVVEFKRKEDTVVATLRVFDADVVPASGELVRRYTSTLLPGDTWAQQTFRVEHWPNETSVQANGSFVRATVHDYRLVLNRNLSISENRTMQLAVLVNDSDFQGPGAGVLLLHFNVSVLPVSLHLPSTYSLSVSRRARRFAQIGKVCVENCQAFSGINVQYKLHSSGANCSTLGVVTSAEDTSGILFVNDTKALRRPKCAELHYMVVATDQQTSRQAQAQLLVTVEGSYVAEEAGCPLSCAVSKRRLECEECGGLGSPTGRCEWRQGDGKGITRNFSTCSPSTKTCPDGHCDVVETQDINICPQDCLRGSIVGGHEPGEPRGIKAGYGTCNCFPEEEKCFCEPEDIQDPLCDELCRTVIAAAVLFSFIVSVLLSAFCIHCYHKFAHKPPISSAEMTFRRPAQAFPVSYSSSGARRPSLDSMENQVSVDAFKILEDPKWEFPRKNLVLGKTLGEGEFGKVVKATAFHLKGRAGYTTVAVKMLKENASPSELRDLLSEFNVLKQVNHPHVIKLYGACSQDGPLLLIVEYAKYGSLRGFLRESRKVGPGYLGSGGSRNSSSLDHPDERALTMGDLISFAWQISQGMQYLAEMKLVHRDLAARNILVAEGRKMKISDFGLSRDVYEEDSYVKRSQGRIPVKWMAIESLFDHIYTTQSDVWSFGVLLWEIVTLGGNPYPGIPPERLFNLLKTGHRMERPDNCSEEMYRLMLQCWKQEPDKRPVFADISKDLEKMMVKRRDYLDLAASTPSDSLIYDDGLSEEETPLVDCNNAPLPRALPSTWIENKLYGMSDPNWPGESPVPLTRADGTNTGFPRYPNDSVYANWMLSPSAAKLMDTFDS
Put plainly: Cytotoxicity assay (CellTiter-Glo), Ba/F3 KIF5B-RET. Particulars: CellTiter-Glo, 72 hrs; read-out: Ba/F3 KIF5B-RET IC50. As to the method: (§1) Inhibitory effects of example compounds on the activity of Ba/F3 parental generation, Ba/F3 KIF5B-RET, Ba/F3 KIF5B-RET^V804M, Ba/F3 KIF5B-RET^V804L, Ba/F3 KIF5B-RET^G810R, Ba/F3 FLT3-ITD, Ba/F3 FLT3-ITD^D835Y, Ba/F3 FLT3-ITD^F691L cells were determined.
(§2) Materials and reagents: fetal bovine serum FBS (GIBCO, Cat #10099141), CellTiter-Glo® Luminescent Cell Viability Assay kit (Promega, Cat #G7572), 96-well black-wall clear flat-bottom plate (Corning®, Cat #3603).
(§3) 1. Cells in the logarithmic growth phase were harvested and counted with a […]. Cell viability was detected by a trypan blue exclusion method, ensuring that cell viability was 90% or more; 2. Cell concentration was adjusted to about 3000 cells/well; 90 μl of cell suspension was added to each well of the 96-well plate; 3. The cells in the 96-well plate were incubated overnight under the condition of 37° C., 5% CO2, and 95% humidity.
(§4) 1. A series of compound solutions were formulated by 3.16-fold serial dilution starting from a concentration of 10 μM, resulting in 9 concentrations. 10 μL of the compound solutions were added in each well of the 96-well plate seeded with cells in triplicate for each compound concentration; 2. The cells in the 96-well plate added with compounds were further incubated under the condition of 37° C., 5% CO2, and 95% humidity for 72 hrs, and then CTG analysis was carried out.
(§5) 1. CTG reagent was thawed, and the cell plate was equilibrated at room temperature for 30 minutes; 2. An equal volume […] of CTG solution was added to each well; 3. The cell plate was shaken on an orbital shaker for 5 minutes to lyse the cells; 4. The cell plate was placed at RT for 20 minutes to stabilize the luminescence signal; 5. Luminescence value was read.
(§6) Data were Analyzed by GraphPad Prism 5.0 Software, and Fitted by Nonlinear S-Curve Regression to obtain a dose-response curve, from which IC50 values were calculated.
(§7) Cell survival rate (%)=(luminescence value of drug to be tested−luminescence value of culture medium control)/(luminescence value of cell control−luminescence value of culture medium control)×100%.

In assay [2] the test system is Ba/F3 KIF5B-RET cells. The assay is described as above. The conditions noted are these: ratio of Ba/F3 parental IC50 to Ba/F3 KIF5B-RET IC50. The method, then:
as §1, §2, §3, §4, §5, §6, §7

The target in assay [3] is T2, Ba/F3 FLT3-ITD cells (Homo sapiens, UniProt P36888, cells depend on it, form not given).
T2 construct: Ba/F3 FLT3-ITD IC50 (nM); other: CellTiter-Glo, 72 hrs
T2 sequence (P36888 1-993): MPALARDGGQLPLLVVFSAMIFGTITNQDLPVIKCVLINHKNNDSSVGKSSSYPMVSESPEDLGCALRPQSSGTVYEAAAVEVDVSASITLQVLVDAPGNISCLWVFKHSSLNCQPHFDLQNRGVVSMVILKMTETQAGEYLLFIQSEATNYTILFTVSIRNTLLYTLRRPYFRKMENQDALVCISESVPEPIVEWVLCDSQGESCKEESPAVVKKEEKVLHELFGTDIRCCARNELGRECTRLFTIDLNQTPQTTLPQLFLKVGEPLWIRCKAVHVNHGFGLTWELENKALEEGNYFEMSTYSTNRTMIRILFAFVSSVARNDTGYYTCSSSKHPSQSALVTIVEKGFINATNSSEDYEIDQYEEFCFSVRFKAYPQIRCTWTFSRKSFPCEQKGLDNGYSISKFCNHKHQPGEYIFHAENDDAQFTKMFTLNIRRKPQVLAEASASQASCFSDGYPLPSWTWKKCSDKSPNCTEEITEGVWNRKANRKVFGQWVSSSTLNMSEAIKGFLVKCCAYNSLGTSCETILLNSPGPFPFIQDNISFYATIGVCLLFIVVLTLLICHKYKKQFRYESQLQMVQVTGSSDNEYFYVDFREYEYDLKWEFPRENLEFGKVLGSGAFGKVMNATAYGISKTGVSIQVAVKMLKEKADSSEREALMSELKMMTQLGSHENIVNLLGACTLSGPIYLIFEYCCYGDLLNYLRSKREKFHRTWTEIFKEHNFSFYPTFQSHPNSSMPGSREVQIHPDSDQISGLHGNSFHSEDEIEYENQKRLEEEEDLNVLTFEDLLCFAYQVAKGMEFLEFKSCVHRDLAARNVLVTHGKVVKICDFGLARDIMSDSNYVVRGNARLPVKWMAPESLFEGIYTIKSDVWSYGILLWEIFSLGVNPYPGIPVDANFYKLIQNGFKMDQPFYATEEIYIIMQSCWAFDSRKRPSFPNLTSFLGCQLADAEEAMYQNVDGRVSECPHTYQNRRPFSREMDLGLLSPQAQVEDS
Briefly: Cytotoxicity assay (CellTiter-Glo), Ba/F3 FLT3-ITD. The conditions noted are these: CellTiter-Glo, 72 hrs; read-out: Ba/F3 FLT3-ITD IC50. As to the method: as §1, §2, §3, §4, §5, §6, §7
(ATP-based viability assays read luminescence as a measure of living cells.)

Assay [4] relates to Ba/F3 FLT3-ITD cells. Put plainly: Cytotoxicity assay (CellTiter-Glo), Ba/F3 FLT3-ITD. Particulars: ratio of Ba/F3 parental IC50 to Ba/F3 FLT3-ITD IC50. The method, then:
as §1, §2, §3, §4, §5, §6, §7

Assay [5] deals with Ba/F3 FLT3-ITD^D835Y cells. Briefly: Cytotoxicity assay (CellTiter-Glo), Ba/F3 FLT3-ITD D835Y. The conditions noted are these: ratio of Ba/F3 parental IC50 to Ba/F3 FLT3-ITD^D835Y IC50. The method, then: as §1, §2, §3, §4, §5, §6, §7

As for `CC(C)c1nc(-c2ccc(CC(=O)Nc3cc(C(C)(C)C(F)(F)F)on3)cc2)c2c(N)nccn12` [Compound T-4, 2-(4-(8-amino-3-isopropylimidazo[1,5-a]pyrazin-1-yl)phenyl)-N-(5-(1,1,1-trifluoro-2-methylprop-2-yl)isoxazol-3-yl)acetamide], the GI50 on Ba/F3 KIF5B-RET cells [1] worked out at 1.56 nM; at Ba/F3 FLT3-ITD cells [3], 0.1 nM. Further, the “Ba/F3 KIF5B-RET Selectivity on parental generation” value with Ba/F3 KIF5B-RET cells [2] is given as 449.4. For the same molecule, the “Ba/F3 FLT3-ITD Selectivity on parental generation” value in the assay on Ba/F3 FLT3-ITD cells [4] was 7011.0. Besides, the “Ba/F3 FLT3-ITD^D835Y Selectivity on parental generation” value in assay [5] is 32.03.
Consider `[2H]C([2H])([2H])C(n1cc(-c2ccc(CC(=O)Nc3cc(C(C)(C)C(F)(F)F)on3)cc2)c2c(N)ncnc21)C([2H])([2H])[2H]` [Compound T-12, 2-(4-(4-amino-7-(propen-2-yl-1,1,1,3,3,d6)-7H-pyrrolo[2,3-d]pyrimidin-5-yl)phenyl)-N-(5-(1,1,1-trifluo-2-methylpropan-2-yl)isoxazol-3-yl)acetamide], for which the values for the GI50 on Ba/F3 KIF5B-RET cells [1] and at Ba/F3 FLT3-ITD cells [3] were 2.24 nM and 0.7 nM, respectively. Besides, the “Ba/F3 KIF5B-RET Selectivity on parental generation” value in the assay with Ba/F3 KIF5B-RET cells [2] stood at 478.6. Further, the “Ba/F3 FLT3-ITD Selectivity on parental generation” value with Ba/F3 FLT3-ITD cells [4] worked out at 1531.4. For the same molecule, the “Ba/F3 FLT3-ITD^D835Y Selectivity on parental generation” value in assay [5] is given as 87.2.
